# Data reported in PubChem BioAssay AID1891 (Broad Institute, 2009).
# Active and inactive are the calls of the source. No rule for the calls is given here.
# Molecular target: Luciferin 4-monooxygenase (Photinus pyralis) (UniProt P08659)
# Assay: inhibition of purified Photinus pyralis luciferase – biochemical, luminescence, dose response (AID 1891)
# Details: purified firefly luciferase
row,SMILES,IC50
1,CCNC(=O)C1OC(n2cnc3c(N)ncnc32)C(O)C1O (centres undefined),> 11.2 µM (inactive)
2,Nc1ncnc2c1ncn2[C@@H]1O[C@H](CO)[C@@H](O)[C@H]1O,> 11.2 µM (inactive)
3,CCNC(=O)[C@H]1O[C@@H](n2cnc3c(N)ncnc32)[C@H](O)[C@@H]1O,> 11.2 µM (inactive)
4,Nc1ncnc2c1ncn2C1OC(CO)C(O)C1O (centres undefined),> 11.2 µM (inactive)
